pIC50: −log10 of the molar value. Activity calls are given as the source filed them. No cut-off for these calls is given here.
How the values were obtained:
HCT-116 = experiment: Cytotoxicity against human HCT116 after 72 hrs by SRB assay; type: functional, cell-based; details: HCT-116, 72 h
A549 = experiment: Cytotoxicity against human A549 after 72 hrs by SRB assay; type: functional, cell-based; details: A549, 72 h
[1] = Stability of the compound assessed as retention of lactone group in phosphate buffer at pH 7 after 8 hrs by HPLC analysis; type: physicochemical; details: for remaining at 8 h: phosphate buffer, pH 7, read-out: Stability; for Stability: buffer, pH 7, 8 h
[2] = Stability of the compound assessed as retention of lactone group at pH 7 after 8 hrs in presence of human serum albumin by HPLC analysis; type: ADME; details: for remaining at 8 h: human serum albumin solution, pH 7, read-out: Stability; for Stability: buffer, pH 7, 8 h
[3] = target: T1, DNA topoisomerase 1 (Homo sapiens) (UniProt P11387); experiment: Inhibition of topo 1-mediated relaxation of supercoiled pBR322 at 10 to 100 uM after 30 mins using ethidium bromide by agarose-gel electrophoresis
T1 sequence (whole entry): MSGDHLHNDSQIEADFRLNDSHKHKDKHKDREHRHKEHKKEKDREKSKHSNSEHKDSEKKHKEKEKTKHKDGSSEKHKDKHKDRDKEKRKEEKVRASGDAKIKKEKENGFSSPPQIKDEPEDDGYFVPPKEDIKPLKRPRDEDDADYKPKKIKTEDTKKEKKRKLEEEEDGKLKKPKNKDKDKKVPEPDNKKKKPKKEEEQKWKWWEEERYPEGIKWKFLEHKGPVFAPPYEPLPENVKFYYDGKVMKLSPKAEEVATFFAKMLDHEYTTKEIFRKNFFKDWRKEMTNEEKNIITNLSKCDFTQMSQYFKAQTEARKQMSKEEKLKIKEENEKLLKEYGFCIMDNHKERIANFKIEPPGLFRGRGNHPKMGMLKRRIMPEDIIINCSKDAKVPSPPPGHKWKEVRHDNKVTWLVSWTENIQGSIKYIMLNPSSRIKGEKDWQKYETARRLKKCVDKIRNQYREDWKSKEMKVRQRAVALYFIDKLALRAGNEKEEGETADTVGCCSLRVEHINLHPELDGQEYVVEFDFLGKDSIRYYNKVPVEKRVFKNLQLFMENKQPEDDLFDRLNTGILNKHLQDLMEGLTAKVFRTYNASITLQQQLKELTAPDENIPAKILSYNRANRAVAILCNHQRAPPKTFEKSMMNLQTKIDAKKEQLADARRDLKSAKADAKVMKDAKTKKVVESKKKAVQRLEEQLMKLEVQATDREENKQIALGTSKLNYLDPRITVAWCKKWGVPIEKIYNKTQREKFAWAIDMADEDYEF

SMILES | pIC50 (HCT-116) | pIC50 (A549) | remaining at 8 h [1] | remaining at 8 h [2] | inhibition [3] | Stability [1] | Stability [2]
CC[C@@]1(O)C(=O)OCc2c1cc1n(c2=O)Cc2cc3ccccc3nc2-1 [CAMPTOTHECIN] | 7.64 | 7.47 | < 40% | 20% | – | – | –
CC[C@@]1(O)C(=O)OCc2c1cc1n(c2=O)Cc2cc3cc(O)ccc3nc2-1 [HYDROXYCAMPTOTHECIN] | 7.51 | 7.47 | – | – | Active | – | –
CC[C@]1(O)c2cc3n(c(=O)c2COC(=O)[C@@H]1OC(C)=O)Cc1cc2ccccc2nc1-3 | 7.85 | 7.31 | – | – | Active | Stable | Stable
CC[C@]1(O)c2cc3n(c(=O)c2COC(=O)[C@@H]1O)Cc1cc2cc4c(cc2nc1-3)OCO4 | 8.51 | 8.51 | – | – | Active | – | –
CC[C@]1(O)c2cc3n(c(=O)c2COC(=O)[C@@H]1O)Cc1cc2cc4c(cc2nc1-3)OCCO4 | 8.47 | 8.54 | – | – | Active | – | –
CC[C@]1(O)c2cc3n(c(=O)c2COC(=O)[C@@H]1O)Cc1cc2ccccc2nc1-3 | 7.31 | 7.77 | – | – | Active | Stable | Stable
CC[C@]1(O)c2cc3n(c(=O)c2COC(=O)[C@@H]1O)Cc1cc2cc(OC)ccc2nc1-3 | 7.97 | 8.32 | – | – | Active | – | –
CC[C@]1(O)c2cc3n(c(=O)c2COC(=O)[C@@H]1OC(C)=O)Cc1cc2cc4c(cc2nc1-3)OCO4 | 8.68 | 8.92 | – | – | Active | Stable | Stable
CC[C@]1(O)c2cc3n(c(=O)c2COC(=O)[C@@H]1OC(C)=O)Cc1cc2cc4c(cc2nc1-3)OCCO4 | 8.31 | 8.34 | 90% | 55% | Active | – | –
CCc1c2c(nc3ccc(O)cc13)-c1cc3c(c(=O)n1C2)COC(=O)[C@]3(O)CC | – | – | – | – | Active | – | –
CC[C@]1(O)c2cc3n(c(=O)c2COC(=O)[C@@H]1OC(C)=O)Cc1cc2cc(OC)ccc2nc1-3 | 8.36 | 8.33 | – | – | Active | – | –

Reference: ChEMBL document CHEMBL2040811, “Synthesis and biological evaluation of new homocamptothecin analogs” (Eur J Med Chem, 2012)
